Patent publication US9974792B2, “Methods for treating cancers” (Gilead Sciences, Inc., priority 2013, dated 2018)

How the values were obtained:
CCL22 = assay: Example 2: serum chemokine/cytokine levels; format: in vivo, human; conditions: days 8 and 29 of therapy
Text: (§1) A bone marrow biopsy and aspirate were collected for confirmatory purposes for all subjects who achieved a complete response (CR) or to confirm suspected PD based solely upon declines in the platelet count and/or hemoglobin. Pharmacodynamic assessments, including serum cytokines and protein phosphorylation in circulating CLL cells, occurred before starting therapy and at designated time points thereafter.

[1] = test system: tumor necrosis factor alpha (TNF-α); assay: Example 2: serum chemokine/cytokine levels; format: in vivo, human; conditions: days 8 and 29 of therapy
Text: as §1

[2] = test system: CCL3/MIP1alpha, CCL4/MIP1beta, CCL22/MDC, and TNFalpha; assay: Example 1: plasma chemokine/cytokine levels by Luminex immunoassays; format: in vivo, human; conditions: Days 8 and 29 vs Day 1; CLL subjects (n=20)
Text: FIG. 9 summarizes the inhibition of BCR-mediated chemokine/cytokines after treatment in CLL subjects.

human subjects with CLL = assay: Example 1: investigator assessed nodal response in CLL subjects; format: in vivo; conditions: CLL subjects (n=29); 800 mg BID fasting
Text: The sample size was 10-40/arm.

[3] = test system: subjects with CLL, FL, lymphoplasmacytoid lymphoma/SLL/marginal zone lymphoma, MCL, or DLBCL; assay: Example 2: phase 2 trial, safety analysis of all treated subjects
Method: A phase 2, open-label, single-agent study was completed to evaluate the efficacy, safety, tolerability, and pharmacodynamics of entospletinib in subjects with relapsed or refractory hematologic malignancies.
Treatment with entospletinib was at a dose of 800 mg twice a day over 28-day cycles under fasted conditions. Fasting was defined as no food or liquids other than water for 2 hours pre- and 1 hour post-dose.
Secondary end points included tolerability, objective response rate (ORR), duration of response (DOR), time to response, and lymph node response rate. […] Exploratory end points included plasma drug concentrations and pharmacodynamic biomarkers.
Subjects were allowed to enroll in the study if they had cytopenias due to CLL. Treatment-emergent cytopenias were defined as a cytopenia that worsened in the period from the first dose of study treatment to 30 days after the last dose of study treatment.

[4] = Example 2: entospletinib plasma pharmacokinetics; format: in vivo, human; conditions: 800 mg twice a day, fasted
Text: Clinic visits, including laboratory tests and pharmacodynamic measurements, were scheduled for day 1 of each 28-day cycle. Blood samples for pharmacokinetic analyses of entospletinib were collected on day 1 of each 28-day cycle, on days 8, 15, and 22 of cycle 1 and on day 15 of cycle 2. Additional safety monitoring visits took place on days 8, 15, and 22 of cycle 1 and day 15 of cycle 2.

CCL4 = assay: Example 2: serum levels of BCR-induced chemokines; format: in vivo, human; conditions: days 8 and 29 of treatment
Text: as §1

CCL3 = assay: Example 2: serum levels of BCR-induced chemokines; format: in vivo, human; conditions: days 8 and 29 of treatment
Text: as §1

[5] = test system: phosphorylated Btk in CD19+CD5+ circulating tumor cells; assay: Example 1: BCR-mediated signaling, intracellular phosphoprotein flow cytometry; format: in vivo, human; conditions: Days 8 and 29 vs Day 1; CLL subjects (n=35)
Text: (§2) Nominal p-values from tests of mean change of Day 8 and 29 from Day 1 using mixed model for repeated measures are <0.0005.

[6] = test system: phosphorylated Blnk in CD19+CD5+ circulating tumor cells; assay: as above; format: in vivo, human; conditions: Days 8 and 29 vs Day 1; CLL subjects (n=35)
Text: as §2

[7] = test system: phosphorylated Syk in CD19+CD5+ circulating tumor cells; assay: as above; format: in vivo, human; conditions: Days 8 and 29 vs Day 1; CLL subjects (n=35)
Text: as §2

c1cn2cc(-c3ccc4cn[nH]c4c3)nc(Nc3ccc(N4CCOCC4)cc3)c2n1 [compound of formula I, 6-(1H-indazol-6-yl)-N-(4-morpholinophenyl)imidazo[1,2-a]pyrazin-8-amine]
Serum levels of CCL22 (CCL22): inhibited | Serum levels of tumor necrosis factor alpha (TNF-α) [1]: inhibited | BCR-mediated chemokine/cytokines, plasma levels [2]: inhibition | overall nodal response rate (human subjects with CLL): 69% | AE leading to study drug discontinuation: fatigue ([3]; N = 145): 3 n | AE leading to study drug discontinuation: headache ([3]; N = 145): 3 n | AE leading to study drug discontinuation: increased ALT ([3]; N = 145): 3 n | AEs resulting in discontinuation, % of all treated subjects ([3]; N = 145): 14.5% | AEs resulting in dose reduction, % of all treated subjects ([3]; N = 145): 7.6% | Constipation, Any grade, % ([3]; N = 145): (24.1) % | Constipation, At least grade 3, % ([3]; N = 145): (1.4) % | Cough, Any grade, % ([3]; N = 145): (19.3) % | Cough, At least grade 3, % ([3]; N = 145): (0.7) % | Decreased appetite, Any grade, % ([3]; N = 145): (24.1) % | Decreased appetite, At least grade 3, % ([3]; N = 145): (0.7) % | Diarrhea, Any grade, % ([3]; N = 145): (34.5) % | Diarrhea, At least grade 3, % ([3]; N = 145): (0.7) % | Dizziness, Any grade, % ([3]; N = 145): (20.7) % | Dizziness, At least grade 3, % ([3]; N = 145): (0.7) % | Fatigue, Any grade, % ([3]; N = 145): (51.7) % | Fatigue, At least grade 3, % ([3]; N = 145): (6.9) % | Grade 3 fatigue, % ([3]; N = 145): 6.9% | Grade 3 fatigue, subjects ([3]; N = 145): 10 subjects | Headache, Any grade, % ([3]; N = 145): (22.8) % | Headache, At least grade 3, % ([3]; N = 145): (0.7) % | Insomnia, Any grade, % ([3]; N = 145): (15.9) % | Laboratory abnormality: Anemia, Any grade, % ([3]; N = 145): (37.2) % | Laboratory abnormality: Increased ALT, Any grade, % ([3]; N = 145): (37.2) % | Laboratory abnormality: Increased ALT, At least grade 3, % ([3]; N = 145): (13.8) % | Laboratory abnormality: Increased AST, Any grade, % ([3]; N = 145): (33.8) % | Laboratory abnormality: Increased AST, At least grade 3, % ([3]; N = 145): (12.4) % | Laboratory abnormality: Neutropenia, Any grade, % ([3]; N = 145): (32.4) % | Laboratory abnormality: Thrombocytopenia, Any grade, % ([3]; N = 145): (6.9) % | Laboratory abnormality: Thrombocytopenia, At least grade 3, % ([3]; N = 145): (2.8) % | Laboratory abnormality: Total bilirubin, Any grade, % ([3]; N = 145): (31.0) % | Laboratory abnormality: Total bilirubin, At least grade 3, % ([3]; N = 145): (4.1) % | Nausea, Any grade, % ([3]; N = 145): (40) % | Nausea, At least grade 3, % ([3]; N = 145): (3.4) % | Pyrexia, Any grade, % ([3]; N = 145): (21.4) % | Pyrexia, At least grade 3, % ([3]; N = 145): (2.1) % | Serious AE: Anemia, % ([3]; N = 145): (2.1) % | Serious AE: Back pain, % ([3]; N = 145): (2.1) % | Serious AE: Chest pain, % ([3]; N = 145): (2.1) % | Serious AE: Dyspnea, % ([3]; N = 145): (3.4) % | Serious AE: Febrile neutropenia, % ([3]; N = 145): (2.8) % | Serious AE: Pneumonia, % ([3]; N = 145): (3.4) % | Serious AE: Pyrexia, % ([3]; N = 145): (2.8) % | grade 2 rash, % ([3]; N = 145): 1.4% | grade 3 dyspnea, % ([3]; N = 145): 6.2% | grade 3 nausea, % ([3]; N = 145): 3.4% | grade 3 rash, % ([3]; N = 145): 1.4% | grade 4 rash, % ([3]; N = 145): 0.7% | subjects with a treatment-emergent AE that led to study drug discontinuation ([3]; N = 145): 15.2% | subjects with a treatment-emergent, serious AE ([3]; N = 145): 31.0% | subjects who died while on study, % ([3]; N=145, none attributed by the investigator to entospletinib): 12.4% | subjects with at least one AE ([3]; all treated subjects N=145): 94.5% | time to grade 3 or 4 ALT/AST elevation, first quartile ([3]; human, in vivo, 800 mg): 4.1 weeks | time to grade 3 or 4 ALT/AST elevation, third quartile ([3]; human, in vivo, 800 mg): 6.1 weeks | subjects with ALT/AST elevation who resumed after interruption without further event, % ([3]; of 21 subjects): 57.1% | grade 3 or 4 ALT/AST elevations that occurred by 6 weeks ([3]; of 21 subjects with elevations): 10 | Reversible grade 3 or 4 ALT/AST elevations, % ([3]; of 145 subjects): 14.5% | Reversible grade 3 or 4 ALT/AST elevations, subjects ([3]; of 145 subjects): 21 subjects | deaths on study due to disease progression ([3]; of eighteen deaths): 13 | tolerability ([3]; phase 2 study): well tolerated | Ctrough, mean (% coefficient of variation) [4]: 1100 (44%) ng/mL | Cmax ([4]; human, oral, read-out: Cmax, mean (% coefficient of variation)): 1490 ng/mL | serum levels of BCR-induced CCL4 (CCL4): Significant reductions | serum levels of BCR-induced CCL3 (CCL3): Significant reductions | phosphorylated Btk in CD19+CD5+ circulating tumor cells [5]: downregulation | phosphorylated Blnk in CD19+CD5+ circulating tumor cells [6]: downregulation | phosphorylated Syk in CD19+CD5+ circulating tumor cells [7]: downregulation
